The record followed here is patent publication US4873081A, “Percutaneous absorption preparation” (priority 1986, dated 1989).

Data set [1] can be described thus: in vivo. The conditions noted are these: rat, topical or ocular; for AUC(0-t) at 36 h: AUC (0-36 hours). Also noted: species or system male Wistar rats. The text has this:
In Table 1, the results obtained are shown. The calcium salts of the anti-inflammatory drugs in the ointment were absorbed to a much greater degree than the indomethacin (Rp. 1).

The nature of data set [2]: Plasma concentration of indomethacin during multiple percutaneous dosing of ointment to rats. Format: in vivo, male Wistar rats. The following applies: 0.14 g per 1.0×1.0 cm. The protocol: The hair of the abdominal area of male Wistar rats weighing 250-300 g was removed in the same manner as described in Example 6. […] The rats were fixed in the Bollman cages for 24 hours. The ointment remained in contact with the skin for 24 hours, and then the unabsorbed ointment was wiped off. Subsequently, second and third applications of the ointment (0.14 g, 1.0×1.0 cm area) were made at different positions on the abdomen similar to the first application. The drug concentrations were determined by the same procedure as described in Example 6. FIG. 2 depicts the plasma indomethacin concentrations after the topical application of these ointments.

Data set [3] concerns adjuvant arthritis induced with M. butyricum. In words: Adjuvant arthritis induced with M. butyricum. Format: in vivo, male Wistar rats. The conditions noted are these: for Inhibition: adjuvant arthritis; for Inhibition / Foot volume: day 16, mean ± S.D. of 6 rats; for Foot volume: 0.14 g gel ointment every other day from day 11 to 15, *p <0.05 vs control. The protocol:
(§1) Experimental carrageenan edema was induced in groups of six male Wistar rats weighing 150-160 g. […] The gel without the drug was similarly applied to the control group. The treated area was immediately covered by aluminum foil and adhesive tape. Six hours later, 1% carrageenan solution was injected subcutaneously into the sole of the right hindpaw. The volumes of both hindpaw were measured hourly using a plethysmometer and the edema volume was calculated from the difference between the injected and non-injected paws. FIG. 3 indicates the effect on the carrageenan-induced paw edema of these ointments applied topically.
M. butyricum (Difco Lab., USA) suspended in paraffin oil was injected into the sole of right hindpaw of male Wistar rats weighing 150-160 g. […] The edema volumes were calculated by measuring the volumes of both hindpaws on day 16, according to the same procedure as described in Example 9.

Data set [4] relates to carrageenan-induced paw edema. In words: Carrageenan-induced edema in hindpaw of rat. Format: in vivo, male Wistar rats. The following applies: 0.14 g gel ointment on abdominal skin 6 h before carrageenan. How it is done:
as §1

Data set [5] deals with shaved back skin. Also noted: species or system male rabbits. The following applies: rabbit, in vivo. The protocol: The evaluation of skin reactions was done by the erythema and edema scores 24 and 72 hours after application.
The nature of data set [6]: Absorption of the active ingredient from other bases or with other promoters. The conditions noted are these: calcium thioglycolate as absorption promoter.

Structures are written as SMILES. Structures can show the parent of a compound that is named as a salt.

In turn, `O=C(O)COc1nn(Cc2ccccc2)c2ccccc12` [Bendazac calcium] came in with an AUC(0-t) at 36 h in data set [1] of 460 ± 31.5 µg·h/mL.

For `O=C(O)Cc1ccccc1Nc1c(Cl)cccc1Cl` [Diclofenac calcium], in data set [1], the exposure AUC(0-t) at 36 h worked out at 465 ± 32.4 µg·h/mL.

The compound `O=C(O)c1ccccc1Nc1cccc(C(F)(F)F)c1` [Flufenamate calcium] gave an AUC(0-t) at 36 h in data set [1] of 463 ± 18.9 µg·h/mL.

Turning to `COc1ccc2c(c1)c(CC(=O)O)c(C)n2C(=O)c1ccc(Cl)cc1` [Indomethacin calcium, Calcium salt of indomethacin], the “absorption through the skin compared with indomethacin” value in data set [2] (three 24 h applications) is “readily and quickly absorbed through the skin compared with indomethacin”. In addition, the “plasma levels after application of the gel ointment” value in data set [2] (multiple dosing, vs indomethacin ointment) is recorded as “much higher plasma levels”. For the same compound, in data set [3], the Inhibition came out at 51.0 ± 7.6% and the Foot volume was found to be 2.38 ± 0.12 mL. The “inhibitory effect on adjuvant arthritis” value in data set [3] (compared with indomethacin ointment) is “significant inhibitory effect, to the same extent as the indomethacin ointment”. In data set [1], the Bioavailability is recorded as 70.3 ± 4.1% and the “AUC (0-36 hours)” value came to 473.4 ± 16.5 µg·h/mL. For the same compound, in data set [4], the “inhibitory effect on carrageenan-induced paw edema” value is listed as “significantly higher inhibitory effect”. In data set [5], the “erythema produced by the ointment” value is given as “only slight erythema” and the “irritation produced by the ointment” value is recorded as “nearly negligible”. Also, in data set [6], the “absorption of the active ingredient on addition of calcium thioglycolate” value is “dramatically decrease the absorption”.

For the compound `COc1ccc2c(c1)c(CC(=O)O)c(C)n2C(=O)c1ccc(Cl)cc1` [Indomethacin, indomethacin, reference compound], in data set [3], the Inhibition is 55.4 ± 10.5% and the Foot volume was 2.32 ± 0.16 mL. For the same compound, in data set [1], the Bioavailability came to 7.3 ± 1.4% and the “AUC (0-36 hours)” value came out at 50.4 ± 7.8 µg·h/mL. In data set [5], the “erythema produced by the ointment” value is reported as “only slight erythema” and the “irritation produced by the ointment” value is on record as “nearly negligible”.

As to `Cc1cccc(Nc2ccccc2C(=O)O)c1C` [Mefenamate calcium, Calcium mefenamate], the AUC(0-t) at 36 h in data set [1] was found to be 470 ± 40.5 µg·h/mL.
